Test system: SARS-CoV pseudovirus entry in ACE2 overexpressing A549 human lung alveolar basal epithelium cells
Assay type: cell-based

rhAAT
SARS-CoV pseudovirus entry: inhibits viral entry of several viruses

From patent publication US20230302104A1, “TREATMENT AND/OR PREVENTION OF A DISEASE OR A SYNDROME RELATED TO A VIRUS INFECTION” (priority 2020, published 2023)
